Holding throughout (test): biochemical
One experiment deals with T1, ZmDRIK1-R187-P492 (Zea mays, UniProt C0P4K9).
T1 construct: kinase domain, R187-P492
T1 sequence (C0P4K9 1-514): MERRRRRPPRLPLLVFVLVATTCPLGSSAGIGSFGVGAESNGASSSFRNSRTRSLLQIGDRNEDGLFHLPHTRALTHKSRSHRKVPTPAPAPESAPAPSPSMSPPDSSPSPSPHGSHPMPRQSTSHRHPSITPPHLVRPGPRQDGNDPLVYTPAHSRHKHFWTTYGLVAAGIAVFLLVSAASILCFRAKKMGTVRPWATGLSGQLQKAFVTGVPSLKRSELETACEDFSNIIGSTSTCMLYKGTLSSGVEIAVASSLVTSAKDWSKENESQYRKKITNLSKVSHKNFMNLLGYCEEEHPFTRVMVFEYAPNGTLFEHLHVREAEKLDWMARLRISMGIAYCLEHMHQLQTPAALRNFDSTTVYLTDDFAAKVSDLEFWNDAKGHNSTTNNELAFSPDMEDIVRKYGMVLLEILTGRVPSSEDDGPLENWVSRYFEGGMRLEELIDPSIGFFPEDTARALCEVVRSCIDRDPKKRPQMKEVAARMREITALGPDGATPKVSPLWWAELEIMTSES
Particulars: read-out: dTm B, DSF, Boltzmann fit, 0.1% DMSO.

The next experiment concerns the target T2, ZmDRIK1-K217-S514 (Zea mays, UniProt C0P4K9).
T2 construct: kinase domain, K217-S514
T2 sequence (C0P4K9 1-514): T1 sequence (C0P4K9 1-514)
Particulars: read-out: dTm B, sheet ZmDRIK1-K217-S514;; DSF, Boltzmann fit, 0.1% DMSO.

The target in experiment [1] is T3, ZmDRIK1 (DROUGHT RESPONSIVE INACTIVE KINASE 1), kinase domain (Zea mays, UniProt C0P4K9).
T3 construct: gene ZEAMMB73_Zm00001d028770; ZmDRIK1-KD R187-S514 (kinase domain)
T3 sequence (C0P4K9 187-514): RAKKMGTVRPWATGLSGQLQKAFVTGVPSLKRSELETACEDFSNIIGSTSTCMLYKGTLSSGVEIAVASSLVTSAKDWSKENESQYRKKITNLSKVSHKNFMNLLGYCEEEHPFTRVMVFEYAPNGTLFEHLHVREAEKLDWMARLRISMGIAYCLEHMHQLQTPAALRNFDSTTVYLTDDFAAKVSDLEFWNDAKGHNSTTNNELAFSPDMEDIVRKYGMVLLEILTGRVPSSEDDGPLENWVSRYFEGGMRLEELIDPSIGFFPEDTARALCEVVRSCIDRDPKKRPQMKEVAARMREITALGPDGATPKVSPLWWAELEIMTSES
Particulars: read-out: dTm B, sheet ZmDRIK1-R187-S514;; DSF, Boltzmann fit, 0.1% DMSO.

The target of a further experiment is T4, ZmDRIK1-K217-P492 (Zea mays, UniProt C0P4K9).
T4 construct: kinase domain, K217-P492
T4 sequence (C0P4K9 1-514): T1 sequence (C0P4K9 1-514)
Particulars: read-out: dTm B, sheet ZmDRIK1-K217-P492;; DSF, Boltzmann fit, 0.1% DMSO.

Where a name gives a salt, the structure may show the parent alone.

With `O=C(Nc1cccc(Cl)c1)Nc1ncc(CCNc2ncnc3ccsc23)s1` [SNS-314 Mesylate], the ΔTm at 10 µM at ZmDRIK1-R187-P492 is 0.159 °C; at ZmDRIK1-K217-S514, -1.86 °C; in experiment [1] it was -23.9 °C; at ZmDRIK1-K217-P492, -0.277 °C.
For the molecule `CCOC(=O)c1cnc2ccc(-c3cncc(NS(=O)(=O)c4ccccc4)c3)cn12` [HS-173], the ΔTm at 10 µM on ZmDRIK1-R187-P492 was -0.247 °C; at ZmDRIK1-K217-S514, -0.361 °C; in experiment [1], -0.566 °C; on ZmDRIK1-K217-P492, -0.326 °C.
On to `Cc1ccc(NC(=O)c2ccc(CN3CCN(C)CC3)cc2)cc1Nc1nc(-c2cccnc2)cs1` [Masitinib (AB1010)], for which the ΔTm at 10 µM at ZmDRIK1-R187-P492 is -0.246 °C; on ZmDRIK1-K217-S514 it was -0.217 °C; in experiment [1], -0.818 °C; on ZmDRIK1-K217-P492, -0.773 °C.
`CN(C)CCOc1ccc(-c2nc(-c3ccncc3)c(-c3ccc4c(c3)CC/C4=N\O)[nH]2)cc1` [SB590885]: the ΔTm at 10 µM on ZmDRIK1-R187-P492 is -0.167 °C; on ZmDRIK1-K217-S514, -0.286 °C; in experiment [1] it was -0.734 °C; at ZmDRIK1-K217-P492 it was -0.936 °C.
`Cc1cnc(Nc2ccc(OCCN3CCCC3)cc2)nc1Nc1cccc(S(=O)(=O)NC(C)(C)C)c1` [TG101348 (SAR302503)]: the ΔTm at 10 µM at ZmDRIK1-R187-P492 is -0.567 °C; at ZmDRIK1-K217-S514, -0.238 °C; in experiment [1] it was -0.804 °C; on ZmDRIK1-K217-P492, -0.974 °C.
Turning to `O=C1Nc2ccc(I)cc2/C1=C/c1cc(Br)c(O)c(Br)c1` [GW5074], the ΔTm at 10 µM was -0.306 °C on ZmDRIK1-R187-P492, 0.341 °C at ZmDRIK1-K217-S514, -0.178 °C in experiment [1] and -0.0461 °C at ZmDRIK1-K217-P492.
As for `Cc1cn(-c2cc(NC(=O)c3ccc(C)c(Nc4nccc(-c5cccnc5)n4)c3)cc(C(F)(F)F)c2)cn1` [Nilotinib (AMN-107)], the ΔTm at 10 µM at ZmDRIK1-R187-P492 is -5.14 °C; on ZmDRIK1-K217-S514, -2.84 °C; in experiment [1] it was -19.8 °C; on ZmDRIK1-K217-P492, -9.25 °C.
Consider `NC(=O)c1cccc(-c2cc(Nc3ccc(OC(F)(F)F)cc3)ncn2)c1` [GNF-2], for which the ΔTm at 10 µM on ZmDRIK1-R187-P492 is -7.74 °C; on ZmDRIK1-K217-S514 it was -4.34 °C; in experiment [1] it was -0.138 °C; on ZmDRIK1-K217-P492, -9.47 °C.
With `C[C@]1(O)C[C@@H](c2nc(-c3ccc4ccc(-c5ccccc5)nc4c3)c3c(N)nccn32)C1` [OSI-906 (Linsitinib)], the ΔTm at 10 µM at ZmDRIK1-R187-P492 is -0.547 °C; on ZmDRIK1-K217-S514 it was -0.681 °C; in experiment [1], -0.97 °C; on ZmDRIK1-K217-P492 it was -0.53 °C.
In the case of `COCC(=O)NC/C=C/c1ccc2ncnc(Nc3ccc(Oc4ccc(C)nc4)c(C)c3)c2c1` [CP-724714], the ΔTm at 10 µM was -0.193 °C on ZmDRIK1-R187-P492, -0.357 °C at ZmDRIK1-K217-S514, -0.904 °C in experiment [1] and -1.14 °C on ZmDRIK1-K217-P492.
`O=C1NC(=O)/C(=C/c2ccc3nccc(-c4ccncc4)c3c2)S1` [GSK1059615]: the ΔTm at 10 µM is -0.283 °C at ZmDRIK1-R187-P492, -0.279 °C on ZmDRIK1-K217-S514, -0.862 °C in experiment [1] and -0.796 °C at ZmDRIK1-K217-P492.
`c1cncc(CN2CCC(n3ncc4c(N5CCOCC5)nc(-c5ccc6[nH]ccc6c5)nc43)CC2)c1` [WAY-600]: the ΔTm at 10 µM at ZmDRIK1-R187-P492 was -0.498 °C; on ZmDRIK1-K217-S514 it was -0.731 °C; in experiment [1] it was -0.643 °C; on ZmDRIK1-K217-P492, -1.19 °C.
The matching figures for `CC1(COc2ccc3c(c2)ncn3-c2ccc3cccc(N4CCC(N)CC4)c3n2)COC1` [Crenolanib (CP-868596)]: -0.209 °C, -0.0308 °C, -0.526 °C and -0.453 °C.
The matching figures for `C=CC(=O)Nc1cccc(Oc2nc(Nc3ccc(N4CCN(C)CC4)cc3OC)ncc2Cl)c1` [WZ4002]: -0.434 °C, -0.557 °C, -1.27 °C and -1.2 °C.
As for `C[C@H]1[C@H](C)CC[C@]2(C(=O)O)CC[C@]3(C)C(=CC[C@@H]4[C@@]5(C)C[C@@H](O)[C@H](O)[C@@](C)(CO)[C@@H]5CC[C@]43C)[C@H]12` [Asiatic Acid], the ΔTm at 10 µM at ZmDRIK1-R187-P492 is -0.41 °C; on ZmDRIK1-K217-S514 it was -0.368 °C; in experiment [1] it was -0.753 °C; at ZmDRIK1-K217-P492, -1.33 °C.
Consider `CCCS(=O)(=O)Nc1ccc(F)c(C(=O)c2c[nH]c3ncc(Cl)cc23)c1F` [PLX-4720], for which the ΔTm at 10 µM on ZmDRIK1-R187-P492 was -0.12 °C; at ZmDRIK1-K217-S514, -0.478 °C; in experiment [1], -1.27 °C; on ZmDRIK1-K217-P492, -0.653 °C.
Take `CC(C)(C#N)c1ccc(N2C(=O)OCc3cnc4ccc(-c5cnc6ccccc6c5)cc4c32)cc1` [ETP-46464]: the ΔTm at 10 µM at ZmDRIK1-R187-P492 is -0.423 °C; at ZmDRIK1-K217-S514, -0.552 °C; in experiment [1], -0.702 °C; on ZmDRIK1-K217-P492 it was -1.05 °C.
Consider `Cn1cnc2c(F)c(Nc3ccc(Br)cc3F)c(C(=O)NOCCO)cc21` [MEK162 (ARRY-162)], for which the ΔTm at 10 µM is -0.189 °C on ZmDRIK1-R187-P492, -0.461 °C on ZmDRIK1-K217-S514, -0.978 °C in experiment [1] and -1.3 °C at ZmDRIK1-K217-P492.
As for `C=CCc1ccc(O)c(-c2ccc(O)c(CC=C)c2)c1` [Honokiol], the ΔTm at 10 µM was -0.457 °C on ZmDRIK1-R187-P492, -0.593 °C on ZmDRIK1-K217-S514, -0.751 °C in experiment [1] and -1.49 °C at ZmDRIK1-K217-P492.
As to `O=C(c1cccc(Cl)c1F)N1CCN(Cc2cccc(Nc3nccs3)n2)CC1` [MK-8745], the ΔTm at 10 µM at ZmDRIK1-R187-P492 is 0.983 °C; at ZmDRIK1-K217-S514, 0.891 °C; in experiment [1] it was 0.487 °C; at ZmDRIK1-K217-P492, 0.174 °C.
Turning to `N#CC(C#N)=Cc1ccc(O)c(O)c1` [AG-18], the ΔTm at 10 µM at ZmDRIK1-R187-P492 was -0.457 °C; at ZmDRIK1-K217-S514, -0.556 °C; in experiment [1], -1.16 °C; at ZmDRIK1-K217-P492, -0.987 °C.
On to `Nc1cccc(-c2cc3c(Oc4cccc(O)c4)ncnc3[nH]2)c1` [TWS119], for which the ΔTm at 10 µM on ZmDRIK1-R187-P492 is -0.00936 °C; on ZmDRIK1-K217-S514, -0.297 °C; in experiment [1] it was -0.75 °C; at ZmDRIK1-K217-P492, -0.79 °C.
The matching figures for `Cc1cc(C(C)Nc2ccccc2)c2nc(N3CCOCC3)cc(=O)n2c1` (stereo not drawn) [TGX-221]: -0.136 °C, -0.0845 °C, -0.944 °C and -0.973 °C.
As to `O=C1c2ccc(Nc3ccc(F)cc3F)cc2CCc2ccc(OC[C@H](O)CO)cc21` [Skepinone-L], the ΔTm at 10 µM on ZmDRIK1-R187-P492 was -0.481 °C; on ZmDRIK1-K217-S514, -0.642 °C; in experiment [1], -0.803 °C; on ZmDRIK1-K217-P492, -0.992 °C.
For `C=CC(=O)Nc1ccc2ncnc(Nc3ccc(OCc4cccc(F)c4)c(Cl)c3)c2c1` [AST-1306], in that order: -5.11 °C, -1.18 °C, -7.98 °C and -1.48 °C.
For `COc1cc2ncc(-c3ccccc3)nc2cc1OC` [Tyrphostin AG 1296], in that order: -0.166 °C, -0.375 °C, -0.879 °C and -0.341 °C.
Consider `Cn1cnc2c(F)c(Nc3ccc(Br)cc3Cl)c(C(=O)NOCCO)cc21` [Selumetinib (AZD6244)], for which the ΔTm at 10 µM on ZmDRIK1-R187-P492 is -0.268 °C; at ZmDRIK1-K217-S514, -0.433 °C; in experiment [1] it was -0.69 °C; on ZmDRIK1-K217-P492, -1.37 °C.
On to `CC1(C)CNc2cc(NC(=O)c3cccnc3NCc3ccncc3)ccc21` [Motesanib Diphosphate (AMG-706)], for which the ΔTm at 10 µM on ZmDRIK1-R187-P492 is -0.24 °C; on ZmDRIK1-K217-S514 it was -0.221 °C; in experiment [1], -0.808 °C; at ZmDRIK1-K217-P492, -1.01 °C.
The matching figures for `Oc1cc(O)cc(/C=C/c2ccc(O)c(O)c2)c1` [Piceatannol]: 0.733 °C, 1.1 °C, -0.69 °C and -0.567 °C.
As to `NCC(=O)Nc1ccc(-n2nc(C(F)(F)F)cc2-c2ccc3c(ccc4ccccc43)c2)cc1` [OSU-03012 (AR-12)], the ΔTm at 10 µM on ZmDRIK1-R187-P492 is -1.36 °C; at ZmDRIK1-K217-S514, 0.388 °C; in experiment [1] it was -0.382 °C; on ZmDRIK1-K217-P492 it was -8.69 °C.

The record behind these values is publication PMC7158045 (BMC Plant Biology, 2020).
